Reference: PubChem BioAssay (NCI)
“And” between values parts separate entries of the source, which are not always exact repeats. Identical values can stand only once.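 Values below derive from 48-hour exposures of cells grown in 96-well plates, with endpoints linearly interpolated between the two concentrations bracketing the appropriate inhibition level. Abbreviation: GI50, concentration required for 50% inhibition of growth. Definition used: TGI = concentration required for complete inhibition of growth.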

Tests used:
Assay in all cases: inhibition of tumour cell growth, NCI panel, 48 h
HCT-116 colon = test system: HCT-116 colon
SNB-75 CNS = test system: SNB-75 CNS
IGROV1 ovarian = test system: IGROV1 ovarian
SNB-19 CNS = test system: SNB-19 CNS
SF-539 CNS = test system: SF-539 CNS
HS 578T breast = test system: HS 578T breast
PC-3 prostate = test system: PC-3 prostate
TK-10 renal = test system: TK-10 renal
XF 498 CNS = test system: XF 498 CNS
DMS 114 small cell lung = test system: DMS 114 small cell lung

SMILES	GI50 (HCT-116 colon)	TGI (HCT-116 colon)	TGI (SNB-75 CNS)	GI50 (IGROV1 ovarian) [µM]	TGI (IGROV1 ovarian) [µM]	GI50 (SNB-19 CNS)	TGI (SNB-19 CNS)	GI50 (SF-539 CNS)	TGI (SF-539 CNS)	GI50 (HS 578T breast)	TGI (HS 578T breast) [µM]	GI50 (PC-3 prostate)	TGI (PC-3 prostate)	GI50 (TK-10 renal) [µM]	TGI (TK-10 renal) [µM]	TGI (XF 498 CNS) [µM]	GI50 (SNB-75 CNS)	TGI (DMS 114 small cell lung) [µM]
CCOC(=O)C(Cc1c[nH]c2cc(N(CCO)CCO)ccc12)(NC(C)=O)C(=O)OCC	325 µM	> 1000 µM	> 1000 µM	445	> 1000	> 1000 µM	> 1000 µM	42.9 µM and 286 µM	770 µM	246 µM	808	94.9 µM and 160 µM	> 1000 µM	> 1000	> 1000			
CN(C)CCC(/C=C/c1ccccc1)=N\Nc1ccc(Cl)c(Cl)c1		11.2 µM	5.9 µM		10.1		20.2 µM		4.17 µM						6.18	7.23		
Cc1ccc(Nc2cc(Cl)c([N+](=O)[O-])cc2[N+](=O)[O-])cc1	2.59 µM	6.94 µM	17.5 µM	3.89	10.4	6.33 µM	17.7 µM	4 µM	15.3 µM	7.63 µM	> 24.7	3.59 µM	14.2 µM	6.03	17.5		3.91 µM	
C=C1C(=O)OC2C1C(OC(=O)/C(C)=C/C)CC(O)(CCl)C1C(O)C=C(C)C21O (centres undefined)		18.9 µM	> 59 µM		31.6		> 64.2 µM		65.5 µM		> 100		> 51.3 µM		27.6			
Cc1ccc(C(=O)NCCCOc2ccc(N3C(N)=NC(N)=NC3(C)C)cc2Cl)cc1S(=O)(=O)F	15 µM	> 100 µM	> 100 µM	4.42	> 100	75 µM	> 100 µM	8.1 µM	> 100 µM	> 100 µM	> 100	5.9 µM	> 100 µM	> 100	> 100		13.4 µM	
Cc1ccccc1NC(=O)/C=N/O		> 100 µM	> 100 µM		> 100		> 100 µM								> 100			> 100
COC(=O)c1cccc2c3ccccc3c3ccccc3c12		> 100 µM	> 100 µM		> 100		> 100 µM								> 100			94.7
OB(O)c1ccccc1C#Cc1ccccc1B(O)O		58.4 µM	> 100 µM		13.9		67.9 µM		44.9 µM		51		> 100 µM		53.2			
CNCC/C=C1\c2cc3c(cc2-c2c1c1cc(OC)c(OC)cc1c(=O)n2C)OCO3	0.0679 µM		33.8 µM	< 0.0505		1.08 µM	23.1 µM	0.4 µM	5.85 µM	8.88 µM	38.9	0.534 µM	10.3 µM	0.941	8.56		3.26 µM	
Cc1ccc(S(=O)(=O)OCC#CCOS(=O)(=O)c2ccc(C)cc2)cc1	2.08 µM	5.47 µM	4.38 µM	0.992	2.86	7.11 µM	22.2 µM	2.5 µM	7.01 µM	2.75 µM	14.2	1.79 µM	3.6 µM	2.37	6.27		1.76 µM	
O=C(O)C1CC=CCC1C(=O)Nc1cccc(O)c1 (centres undefined)		> 100 µM	> 100 µM		> 100		> 100 µM		> 100 µM		> 100		> 100 µM		> 100			
CCOC(=O)C(=O)Nc1cc(Cl)c(Cl)cc1Cl		> 100 µM	> 100 µM		> 100		> 100 µM		> 100 µM						> 100			> 100
Cc1c(Cl)c(=O)oc2cc(OC/C=C3\CCC(=O)O3)ccc12	13.9 µM	28.3 µM	37.5 µM	12.9	27.5	17.7 µM	51.7 µM	17.4 µM	56.5 µM	24.2 µM	77.4	14.2 µM	38.8 µM	13.8	32.6		17.9 µM	
O=C1Nc2cc(-c3cccc(O)c3)ccc2/C1=C/c1ccc[nH]1	1.32 µM	3.44 µM	4.53 µM	1.01	10.1	3.5 µM	15.1 µM	1.12 µM	2.49 µM	1.51 µM	5.73	2.53 µM	10.7 µM	0.833	9.19		1.31 µM	
CS(=O)(=O)Nc1cc(-c2ccc3ncnc(Nc4ccc(F)c(Cl)c4)c3c2)cnc1Cl	0.783 µM and 0.946 µM	3.22 µM and 5.22 µM	1.28 µM and 0.812 µM	0.114	0.495	0.673 µM and 0.596 µM	10.1 µM and 7.92 µM	0.431 µM and 0.541 µM	2.52 µM and 3.33 µM	0.182 µM and 0.19 µM	2.69	0.594 µM and 0.562 µM	5.2 µM and 7.02 µM	0.261	2.28		0.132 µM and 0.0697 µM	
CC(C)(C)OC(=O)NCCCCn1c2c(c3ccccc3c1=O)C(=O)c1ccccc1-2	5.21 µM	> 100 µM	> 100 µM	23	> 100	25.1 µM	94.5 µM	25.9 µM	62.8 µM	20.9 µM	52.8	8.71 µM	> 100 µM	20.7	47.7		35.4 µM	
CCC/C=C\C=C\C1(NS(=O)(=O)c2ccc(C)cc2)CCC(C(C)(C)C)CC1 (centres undefined)		38.3 µM	72.1 µM		87.3		> 100 µM		> 100 µM						69.9	35.7		
COCCOCCOCc1n(Cc2ccc3ccccc3c2)c2ccccc2[n+]1Cc1ccc2ccccc2c1	0.385 µM	1.65 µM	1.31 µM	0.328	1.55	0.377 µM	1.59 µM	0.587 µM	2.01 µM	1.14 µM	2.96	0.344 µM	1.59 µM	0.772	2.15		0.236 µM	
